The source of these data is ChEMBL document CHEMBL3734749, “Naturally occurring FANCFHes1 complex inhibitors from Wrightia religiosa” (Medchemcomm, 2015).

In test [1] the target is T1, Fanconi anemia group F protein/Transcription factor HES-1 (Homo sapiens) (UniProt Q9NPI8+Q14469). Briefly: (§1) Inhibition of Cy3-GST-tagged human recombinant full length FANCF/Cy3-tagged human full length HES1 (1 to 280 amino acid residues) interaction expressed in Escherichia coli JM109 after 1 hrs by microplate reader assay.
Test [2] can be described thus: Inhibition of Cy3-GST-tagged human recombinant full length FANCF/Cy3-tagged rat Hes1 (3 to 281 amino acid residues) interaction expressed in Escherichia coli JM109 at 50 uM after 1 hrs by microplate reader assay.
Test [3] concerns Bone marrow cell. Nature of the test: Reduction of colony formation in Fanconi A deficient mouse bone marrow cells at 50 uM after 10 to 14 days. The format is functional, cell-based.
Test [4] has as its target T2, Transcription factor HES-1 (Homo sapiens, UniProt Q14469).
T2 sequence (Q14469 whole entry): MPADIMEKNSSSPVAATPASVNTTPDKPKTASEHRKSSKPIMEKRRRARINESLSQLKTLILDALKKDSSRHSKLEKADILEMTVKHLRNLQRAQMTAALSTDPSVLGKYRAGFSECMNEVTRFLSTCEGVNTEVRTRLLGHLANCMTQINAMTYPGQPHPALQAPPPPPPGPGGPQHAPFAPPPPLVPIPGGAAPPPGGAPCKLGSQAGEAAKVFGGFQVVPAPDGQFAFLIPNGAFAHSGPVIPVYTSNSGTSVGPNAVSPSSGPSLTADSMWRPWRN
Briefly: Inhibition of Cy3-tagged human recombinant full length HES1 (1 to 280 amino acid residues)/Cy3-GST-tagged human recombinant full length HES1 (1 to 280 amino acid residues) dimer formation expressed in Escherichia coli JM109 after 1 hr by microplate reader assay.

Test [5] is described as follows: Inhibition of GST-tagged recombinant mouse beta-catenin (128 to 683 amino acid residues)/human recombinant TCF4E (1 to 100 amino acid residues) complex formation expressed in Escherichia coli JM109 after 1 hrs by microplate reader assay.
The target in test [6] is T1, Fanconi anemia group F protein/Transcription factor HES-1 (Homo sapiens). Briefly: Inhibition of Cy3-GST-tagged human recombinant full length FANCF/Cy3-tagged human full length HES1 (1 to 280 amino acid residues) interaction expressed in Escherichia coli JM109 at 10 uM after 1 hrs by microplate reader assay.
The target of test [7] is T3, Fanconi anemia group F protein/Transcription factor HES-1 (Homo sapiens, UniProt Q14469+Q9NPI8).
T3 sequence (Q9NPI8 whole entry): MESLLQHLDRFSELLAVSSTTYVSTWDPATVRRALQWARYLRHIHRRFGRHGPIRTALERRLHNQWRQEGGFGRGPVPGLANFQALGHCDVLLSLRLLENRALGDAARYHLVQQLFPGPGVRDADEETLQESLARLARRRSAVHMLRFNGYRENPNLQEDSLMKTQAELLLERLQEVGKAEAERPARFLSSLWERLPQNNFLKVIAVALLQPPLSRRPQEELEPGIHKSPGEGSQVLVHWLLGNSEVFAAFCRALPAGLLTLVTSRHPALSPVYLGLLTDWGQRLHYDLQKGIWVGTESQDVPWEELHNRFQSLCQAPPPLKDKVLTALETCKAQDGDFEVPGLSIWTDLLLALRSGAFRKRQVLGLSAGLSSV
T3 sequence (Q14469 whole entry): T2 sequence (Q14469 whole entry)
Described as §1.

Test [8] relates to Bone marrow cell. Nature of the test: Reduction of colony formation in Fanconi C deficient mouse bone marrow cells at 50 uM after 10 to 14 days. The format is functional, cell-based.
The nature of test [9]: Reduction of colony formation in wild type mouse bone marrow cells at 50 uM after 10 to 14 days. It is filed as functional, Bone marrow cell. Also on record: scale not given: the % may be the effect or the level left.

Each structure is given as a SMILES string. Activity calls are given as the source filed them. The calls are words filed in the database; no cut-off is given here.

The inhibition is the percentage by which the read-out fell short of the control. `C[C@@H]1O[C@@H](OC[C@H]2O[C@@H](Oc3c(-c4ccc(O[C@@H]5O[C@@H](C)[C@H](O)[C@@H](O)[C@H]5O)cc4)oc4cc(O)cc(O)c4c3=O)[C@H](O)[C@@H](O)[C@@H]2O)[C@H](O)[C@H](O)[C@H]1O`: the inhibition result in test [1] was “Dose-dependent effect”. Moreover, in test [2], the inhibition result is “Active”.
As usually defined, the IC50 is the concentration needed to halve the response being measured. With `C[C@@H]1O[C@@H](OC[C@H]2O[C@@H](Oc3c(-c4ccc(O[C@@H]5O[C@@H](C)[C@H](O)[C@@H](O)[C@H]5O)c(O)c4)oc4cc(O)cc(O)c4c3=O)[C@H](O)[C@@H](O)[C@@H]2O)[C@H](O)[C@H](O)[C@H]1O`, the result in the test with Bone marrow cell [3] was Active. In addition, the IC50 in test [4] is 25.7 µM; in test [5], above 100 µM; in test [7], 23.6 µM. The inhibition in test [6] is 40%; in test [1], “Dose-dependent effect”. Further, the result in the test with Bone marrow cell [8] was inactive. The inhibition result in [2] is “Active”. In [9], this compound gave an Activity of 40%.
For the compound `C[C@@H]1O[C@@H](OC[C@H]2O[C@@H](Oc3c(-c4ccc(O)c(O)c4)oc4cc(O)cc(O)c4c3=O)[C@H](O)[C@@H](O)[C@H]2O)[C@H](O)[C@H](O)[C@H]1O`, the half-inhibitory concentration (IC50) was above 100 µM in test [4], above 100 µM in test [5] and 35.8 µM in test [7]. In addition, the values for the inhibition in [6] and in test [1] were 40% and “Dose-dependent effect”, respectively. The inhibition entry in test [2] was “Active”.
